Source: patent publication EP4603105A1, “PHARMACEUTICAL COMPOSITION CONTAINING CYCLIC COMPOUND HAVING SELECTIVE KRAS INHIBITORY EFFECT AGAINST HRAS AND NRAS” (CHUGAI SEIYAKU KABUSHIKI KAISHA, priority 2022, dated 2024)

Tests used:
[1] = molecular target: GDP-bound KRAS wild-type protein (Homo sapiens, UniProt P01116); assay: Binding to KRAS by surface plasmon resonance (SPR), dissociation constant KD
Procedure, shortened: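 Running buffer contained 10 µM GDP and 10 mM MgCl2 to keep RAS in the GDP state, with 4% DMSO at pH 7.4. Compounds were flowed at 100 µL/min in 75 s steps of rising concentration over captured biotin-Avi RAS at 30°C. Sensorgrams were fitted 1:1 for KD.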

[2] = molecular target: GDP-bound NRAS wild-type protein (Homo sapiens, UniProt P01111); assay: Binding to NRAS by surface plasmon resonance (SPR), KD and KD ratio to KRAS; settings: ratio of KD for GDP-bound NRAS wild-type protein to KD for KRAS
Chain of GDP-bound NRAS wild-type protein (P01111 whole entry): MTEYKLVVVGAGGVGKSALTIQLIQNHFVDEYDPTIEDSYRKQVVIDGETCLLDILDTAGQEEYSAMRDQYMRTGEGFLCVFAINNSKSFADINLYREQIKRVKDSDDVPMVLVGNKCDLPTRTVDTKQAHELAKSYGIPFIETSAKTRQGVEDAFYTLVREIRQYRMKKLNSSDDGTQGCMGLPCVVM
Procedure, shortened: (§1)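 GDP-bound biotin-Avi RAS captured at ~100–300 RU, 30°C, pH 7.4 HBS containing 10 µM GDP, 10 mM MgCl2, 1 mM DTT, 0.01% Tween 20 and 4% DMSO. KD by 1:1 fitting.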

[3] = system: human lung cancer strain NCI-H441; assay: NCI-H441 cell proliferation inhibitory activity (CellTiter-Glo, 4 days); type: cell-based; settings: NCI-H441 cells, 4 days, read-out: NCl-H441 IC50
Procedure, shortened: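 Readout: […] after the ATP-based reagent. Compound: serial dilutions in dimethyl sulfoxide.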

HRAS wild-type protein = HRAS wild-type protein (Homo sapiens, UniProt P01112); assay: Binding to HRAS by surface plasmon resonance (SPR), KD and KD ratio to KRAS; settings: ratio of KD for HRAS wild-type protein to KD for KRAS
Chain of HRAS wild-type protein (P01112 whole entry): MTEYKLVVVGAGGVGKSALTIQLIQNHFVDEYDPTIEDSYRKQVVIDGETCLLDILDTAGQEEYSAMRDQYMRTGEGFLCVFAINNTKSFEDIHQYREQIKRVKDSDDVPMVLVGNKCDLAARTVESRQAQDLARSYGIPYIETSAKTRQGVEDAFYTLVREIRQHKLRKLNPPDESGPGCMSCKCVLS
Procedure, shortened: as §1

Chain of GDP-bound KRAS wild-type protein (P01116 1-188 isoform P01116-2): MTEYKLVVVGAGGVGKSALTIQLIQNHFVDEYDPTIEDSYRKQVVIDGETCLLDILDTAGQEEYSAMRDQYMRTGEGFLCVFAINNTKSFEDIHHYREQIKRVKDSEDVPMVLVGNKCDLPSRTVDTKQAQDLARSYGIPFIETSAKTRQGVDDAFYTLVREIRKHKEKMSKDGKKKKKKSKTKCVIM

SMILES | Kd ([1]; 1:1 binding model) [nM] | NRAS /KRAS [2] | IC50 [3] [nM] | HRAS /KRAS (HRAS wild-type protein) | Kd ([1]; Single Cycle Kinetics) [nM]
CCOC[C@H]1C(=O)N[C@@H]([C@@H](C)CC)C(=O)N(C)CC(=O)N(C)[C@H]2C/C=C\CCN(C2=O)[C@@H](Cc2ccc(C(F)(F)F)cc2)C(=O)N(C)CC(=O)N[C@@H](CCc2ccc(Cl)c(Cl)c2)C(=O)N2C[C@H](OCC)C[C@H]2C(=O)NC2(CC(C)(C)C2)C(=O)N(C)[C@@H](CC(C)(C)C)C(=O)N(C)[C@H](C(=O)N(C)C)CC(=O)N1C [PP2740] | 0.17 | AA (a compound having 20 or more is denoted as AA) | 24.2 | A (a compound having 10 or more and less than 20 is denoted as A) | –
CCC[C@H]1C(=O)N[C@@H]([C@@H](C)CC)C(=O)N(C2CC2)CC(=O)N(C)[C@H]2C/C=C\CCN(C2=O)[C@@H](Cc2ccc(C(F)(F)F)cc2)C(=O)N(C)CC(=O)N[C@@H](CCc2ccc(C(F)(F)F)c(OC)c2)C(=O)N2C[C@H](OCC)C[C@H]2C(=O)NC2(CC(C)(C)C2)C(=O)N(C)[C@@H](CC(C)(C)C)C(=O)N(C)[C@H](C(=O)N(C)C)CC(=O)N1C [PP2746] | 0.28 | A (a compound having 10 or more and less than 20 is denoted as A) | 10.2 | A (a compound having 10 or more and less than 20 is denoted as A) | –
CCO[C@@H]1C[C@H]2C(=O)NC3(CC(C)(C)C3)C(=O)N(C)[C@@H](CC(C)(C)C)C(=O)N(C)[C@H](C(=O)N(C)C)CC(=O)N(C)[C@@H](COC)C(=O)N[C@@H]([C@@H](C)CC)C(=O)N(C3CC3)CC(=O)N(C)[C@H]3C/C=C\CCN(C3=O)[C@@H](Cc3ccc(C(F)(F)F)cc3)C(=O)N(C)CC(=O)N[C@@H](CCc3ccc(C(F)(F)F)c(OC)c3)C(=O)N2C1 [PP2748] | 0.2 | A (a compound having 10 or more and less than 20 is denoted as A) | 7.1 | A (a compound having 10 or more and less than 20 is denoted as A) | –
CCC[C@H]1C(=O)N[C@@H]([C@@H](C)CC)C(=O)N(C)CC(=O)N(C)[C@H]2C/C=C\CCN(C2=O)[C@@H](Cc2ccc(C)cc2)C(=O)N(C)CC(=O)N[C@@H](CCc2cc(F)c(C(F)(F)F)c(F)c2)C(=O)N2C[C@H](OCC)C[C@H]2C(=O)NC2(CC(C)(C)C2)C(=O)N(C)[C@@H](CC2CCC2)C(=O)N(C)[C@H](C(=O)N(C)C)CC(=O)N1C [PP2751] | 0.85 | A (a compound having 10 or more and less than 20 is denoted as A) | 39.3 | A (a compound having 10 or more and less than 20 is denoted as A) | –
CCCOC[C@H]1C(=O)N[C@@H]([C@@H](C)CC)C(=O)N(C)CC(=O)N(C)[C@H]2C/C=C\CCN(C2=O)[C@@H](Cc2ccc(C)cc2)C(=O)N(C)CC(=O)N[C@@H](CCc2cc(F)c(C(F)(F)F)c(F)c2)C(=O)N2C[C@H](OCC)C[C@H]2C(=O)NC2(CC(C)(C)C2)C(=O)N(C)[C@@H](CC2CCC2)C(=O)N(C)[C@H](C(=O)N(C)C)CC(=O)N1C [PP2752] | 1.2 | A (a compound having 10 or more and less than 20 is denoted as A) | 70.3 | A (a compound having 10 or more and less than 20 is denoted as A) | –
CCC[C@H]1C(=O)N[C@@H]([C@@H](C)CC)C(=O)N(C)CC(=O)N(C)[C@H]2C/C=C\CCN(C2=O)[C@@H](Cc2ccc(C)cc2)C(=O)N(C)CC(=O)N[C@@H](CCc2ccc(C(F)(F)F)c(OC)c2)C(=O)N2C[C@H](OCC)C[C@H]2C(=O)NC2(CC(C)(C)C2)C(=O)N(C)[C@@H](CC2CCC2)C(=O)N(C)[C@H](C(=O)N(C)C)CC(=O)N1C [PP2753] | 0.97 | A (a compound having 10 or more and less than 20 is denoted as A) | 52 | B (a compound having 3 or more and less than 10 is denoted as B) | –
CCC[C@H]1C(=O)N[C@@H]([C@@H](C)CC)C(=O)N(C)CC(=O)N(C)[C@H]2C/C=C\CCN(C2=O)[C@@H](Cc2ccc(C)cc2)C(=O)N(C)CC(=O)N[C@@H](CCc2ccc(Cl)c(Cl)c2)C(=O)N2C[C@H](OCC)C[C@H]2C(=O)NC2(CC(C)(C)C2)C(=O)N(C)[C@@H](CC2CCC2)C(=O)N(C)[C@H](C(=O)N(C)C)CC(=O)N1C [PP2755] | 0.56 | A (a compound having 10 or more and less than 20 is denoted as A) | 35.7 | A (a compound having 10 or more and less than 20 is denoted as A) | –
CCOC[C@H]1C(=O)N[C@@H]([C@@H](C)CC)C(=O)N(C2CC2)CC(=O)N(C)[C@@H]2C/C=C\CCN(C2=O)[C@@H](Cc2ccc(C)cc2)C(=O)N(C)CC(=O)N[C@@H](CCc2ccc(C(F)(F)F)c(OC)c2)C(=O)N2C[C@H](OCC)C[C@@H]2C(=O)NC2(CC(C)(C)C2)C(=O)N(C)[C@H](CC2CCC2)C(=O)N(C)[C@H](C(=O)N(C)C)CC(=O)N1C [PP2760] | 4.8 | A (a compound having 10 or more and less than 20 is denoted as A) | 144 | B (a compound having 3 or more and less than 10 is denoted as B) | –
CCC[C@H]1C(=O)N[C@@H]([C@@H](C)CC)C(=O)N(C2CC2)CC(=O)N(C)[C@H]2C/C=C\CCN(C2=O)[C@@H](Cc2ccc(C)cc2)C(=O)N(C)CC(=O)N[C@@H](CCc2ccc(Cl)c(Cl)c2)C(=O)N2C[C@H](OCC)C[C@H]2C(=O)NC2(CC(C)(C)C2)C(=O)N(C)[C@@H](CC2CCC2)C(=O)N(C)[C@H](C(=O)N(C)C)CC(=O)N1C [PP2761] | 2.8 | A (a compound having 10 or more and less than 20 is denoted as A) | 68.4 | A (a compound having 10 or more and less than 20 is denoted as A) | –
CCOC[C@H]1C(=O)N[C@@H]([C@@H](C)CC)C(=O)N(C2CC2)CC(=O)N(C)[C@H]2C/C=C\CCN(C2=O)[C@@H](Cc2ccc(C)cc2)C(=O)N(C)CC(=O)N[C@@H](CCc2ccc(Cl)c(Cl)c2)C(=O)N2C[C@H](OCC)C[C@H]2C(=O)NC2(CC(C)(C)C2)C(=O)N(C)[C@@H](CC2CCC2)C(=O)N(C)[C@H](C(=O)N(C)C)CC(=O)N1C [PP2762] | 2.9 | A (a compound having 10 or more and less than 20 is denoted as A) | 122 | A (a compound having 10 or more and less than 20 is denoted as A) | –
CCOC[C@H]1C(=O)N[C@@H]([C@@H](C)CC)C(=O)N(C)CC(=O)N(C)[C@H]2C/C=C\CCN(C2=O)[C@@H](Cc2ccc(C(F)(F)F)cc2)C(=O)N(C)CC(=O)N[C@@H](CCc2cc(F)c(C(F)(F)F)c(F)c2)C(=O)N2C[C@H](OCC)C[C@H]2C(=O)NC2(CC(C)(C)C2)C(=O)N(C)[C@@H](CC2CCC2)C(=O)N(C)[C@H](C(=O)N(C)C)CC(=O)N1C [PP2763] | 0.86 | A (a compound having 10 or more and less than 20 is denoted as A) | 71.9 | A (a compound having 10 or more and less than 20 is denoted as A) | –
CCC[C@H]1C(=O)N[C@@H]([C@@H](C)CC)C(=O)N(C)CC(=O)N(C)[C@H]2C/C=C\CCN(C2=O)[C@@H](Cc2ccc(C(F)(F)F)cc2)C(=O)N(C)CC(=O)N[C@@H](CCc2ccc(C(F)(F)F)c(OC)c2)C(=O)N2C[C@H](OCC)C[C@H]2C(=O)NC2(CC(C)(C)C2)C(=O)N(C)[C@@H](CC2CCC2)C(=O)N(C)[C@H](C(=O)N(C)C)CC(=O)N1C [PP2764] | 0.85 | A (a compound having 10 or more and less than 20 is denoted as A) | 55.8 | A (a compound having 10 or more and less than 20 is denoted as A) | –
CCC[C@H]1C(=O)N[C@@H]([C@@H](C)CC)C(=O)N(C)CC(=O)N(C)[C@H]2C/C=C\CCN(C2=O)[C@@H](Cc2ccc(C(F)(F)F)cc2)C(=O)N(C)CC(=O)N[C@@H](CCc2ccc(Cl)c(Cl)c2)C(=O)N2C[C@H](OCC)C[C@H]2C(=O)NC2(CC(C)(C)C2)C(=O)N(C)[C@@H](CC2CCC2)C(=O)N(C)[C@H](C(=O)N(C)C)CC(=O)N1C [PP2766] | 0.52 | A (a compound having 10 or more and less than 20 is denoted as A) | 26 | A (a compound having 10 or more and less than 20 is denoted as A) | –
CCOC[C@H]1C(=O)N[C@@H]([C@@H](C)CC)C(=O)N(C)CC(=O)N(C)[C@H]2C/C=C\CCN(C2=O)[C@@H](Cc2ccc(C(F)(F)F)cc2)C(=O)N(C)CC(=O)N[C@@H](CCc2ccc(Cl)c(Cl)c2)C(=O)N2C[C@H](OCC)C[C@H]2C(=O)NC2(CC(C)(C)C2)C(=O)N(C)[C@@H](CC2CCC2)C(=O)N(C)[C@H](C(=O)N(C)C)CC(=O)N1C [PP2767] | 0.49 | A (a compound having 10 or more and less than 20 is denoted as A) | 62.6 | A (a compound having 10 or more and less than 20 is denoted as A) | –
CCO[C@@H]1C[C@H]2C(=O)NC3(CC(C)(C)C3)C(=O)N(C)[C@@H](C3CCCC3)C(=O)N(C)[C@H](C(=O)N(C)CC)CC(=O)N(C)[C@@H]([C@H](C)OC)C(=O)N[C@@H]([C@@H](C)CC)C(=O)N3CCC[C@H]3C(=O)N(C)[C@H]3C/C=C\CCN(C3=O)[C@@H](Cc3ccc(C)cc3)C(=O)N(C)CC(=O)N[C@@H](CCc3ccc(C(F)(F)F)c(Cl)c3)C(=O)N2C1 [PP3165] | – | A (a compound having 10 or more and less than 20 is denoted as A) | 480 | A (a compound having 10 or more and less than 20 is denoted as A) | 1.9
